Test results published in ChEMBL document CHEMBL1121547 (J Med Chem, 1980).

Key:
[1] = target: GABA-A receptor; anion channel (Rattus norvegicus) (UniProt O09028+P15431+P18506+P18508+P19969+P20236+P23574+P23576+P28471+P28473+P30191+P62813+P63079+P63138+Q91ZM7+Q9ES14); test: Relative binding affinity for sodium-independent Gamma-aminobutyric acid receptor synaptic membrane binding site in rat brain tissue; type: tissue-based
[2] = target: GABA-A receptor; anion channel; test: Displacement of [3H]gamma-aminobutyric acid from sodium-independent Gamma-aminobutyric acid (GABA-A) receptor synaptic membrane binding sites from rat brain tissue
[3] = target: Gamma-aminobutyric acid receptor subunit gamma-1 (Rattus norvegicus, UniProt P23574); test: […] of [3H]GABA at Gamma-aminobutyric acid receptor in rat brain membranes at 0.01 uM; type: cell membranes
Gamma-aminobutyric acid receptor subunit gamma-1, sequence (P23574 whole entry): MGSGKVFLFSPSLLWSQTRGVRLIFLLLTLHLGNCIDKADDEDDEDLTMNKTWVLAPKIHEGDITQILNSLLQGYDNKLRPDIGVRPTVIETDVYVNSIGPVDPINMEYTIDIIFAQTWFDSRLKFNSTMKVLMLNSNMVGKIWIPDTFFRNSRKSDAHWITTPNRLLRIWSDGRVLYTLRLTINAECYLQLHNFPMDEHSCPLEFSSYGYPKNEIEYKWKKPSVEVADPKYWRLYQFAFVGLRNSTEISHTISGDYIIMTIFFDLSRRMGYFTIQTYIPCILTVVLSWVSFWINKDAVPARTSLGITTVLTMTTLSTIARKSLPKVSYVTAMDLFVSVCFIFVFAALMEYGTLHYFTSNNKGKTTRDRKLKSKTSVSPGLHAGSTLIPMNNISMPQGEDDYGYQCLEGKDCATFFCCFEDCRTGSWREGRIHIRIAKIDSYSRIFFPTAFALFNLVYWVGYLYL

SMILES | Relative affinity [1] | IC50 [2] [M l-1] | IC50 [3] [µM] | IC50 ([2]; read-out: IC50) [nM]
NCc1cc(O)no1 | 6.3 |  |  | 
NCC1CCC1C(=O)O (racemic) | 6.9 | 0.00029 |  | 
CN1CCc2cc3c(cc2[C@H]1[C@@H]1OC(=O)c2c1ccc1c2OCO1)OCO3 [BICUCULLINE] | 0.0056 |  | 3.8 | 
NCc1cc(=O)[nH]o1 [MUSCIMOL] |  |  |  | 3.2
